Tested on: subjects with moderate-to-severe plaque psoriasis
Assay: Safety, adverse events, Example 2 through Week 56
Format: in vivo, human
Details: Combined; through Week 56
Text: The LTE safety analysis was based on randomized participants in Example who entered the present long-term extension study and received at least one dose of study intervention (including a partial dose) during the study period.

Compound: CC(=O)NCCCC[C@@H]1NC(=O)[C@H](Cc2c[nH]c3c(C)cccc23)NC(=O)[C@H]([C@@H](C)O)NC(=O)[C@H](CC(N)=O)NC(=O)[C@@H](NC(C)=O)C(C)(C)SSC(C)(C)[C@@H](C(=O)N[C@@H](Cc2ccc(OCCN)cc2)C(=O)N[C@@H](Cc2ccc3ccccc3c2)C(=O)NC2(C(=O)N[C@@H](CCC(=O)O)C(=O)N[C@@H](CC(N)=O)C(=O)N[C@@H](Cc3cccnc3)C(=O)N(C)CC(N)=O)CCOCC2)NC1=O [IL-23 receptor antagonist peptide, Ac-[Pen]*-N-T-[W(7-Me)]-[Lys(Ac)]-[Pen]*-Phe[4-(2-aminoethoxy)]-[2-Nal]-[THP]-E-N-[3-Pal]-Sarc-NH2 (*[Pen]-[Pen]* formdisulfidebond)]
- Coronary artery disease: % of subjects: (0.4%)
- Coronary artery disease: number of subjects: 1
- Cough: % of subjects: (3.2%)
- Cough: number of subjects: 8
- Decreased appetite: % of subjects: (0.4%)
- Decreased appetite: number of subjects: 1
- Depression: % of subjects: (0.8%)
- Depression: number of subjects: 2
- Dermal cyst: % of subjects: (0.4%)
- Dermal cyst: number of subjects: 1
- Dermatitis acneiform: % of subjects: (0.4%)
- Dermatitis acneiform: number of subjects: 1
- Dermatitis contact: % of subjects: (1.6%)
- Dermatitis contact: number of subjects: 4
- Diabetes mellitus: % of subjects: (0.8%)
- Diabetes mellitus: number of subjects: 2
- Diffuse alopecia: % of subjects: (0.4%)
- Diffuse alopecia: number of subjects: 1
- Dysuria: % of subjects: (0.4%)
- Dysuria: number of subjects: 1
- Ear and labyrinth disorders: % of subjects: (1.2%)
- Ear and labyrinth disorders: number of subjects: 3
- Endocrine disorders: % of subjects: (0.4%)
- Endocrine disorders: number of subjects: 1
- Eye disorders: % of subjects: (1.2%)
- Eye disorders: number of subjects: 3
- Eyelid skin dryness: % of subjects: (0.4%)
- Eyelid skin dryness: number of subjects: 1
- Fatigue: % of subjects: (1.6%)
- Fatigue: number of subjects: 4
- General disorders and administration site conditions: % of subjects: (5.3%)
- General disorders and administration site conditions: number of subjects: 13
- Goiter: % of subjects: (0.4%)
- Goiter: number of subjects: 1
- Haemochromatosis: % of subjects: (0.4%)
- Haemochromatosis: number of subjects: 1
- Hand dermatitis: % of subjects: (0.4%)
- Hand dermatitis: number of subjects: 1
- Hematuria: % of subjects: (0.8%)
- Hematuria: number of subjects: 2
- Hepatobiliary disorders: % of subjects: (1.2%)
- Hepatobiliary disorders: number of subjects: 3
- Hypercholesterolemia: % of subjects: (0.4%)
- Hypercholesterolemia: number of subjects: 1
- Hyperglycemia: % of subjects: (1.6%)
- Hyperglycemia: number of subjects: 4
- Hyperlipidemia: % of subjects: (0.4%)
- Hyperlipidemia: number of subjects: 1
- Hypertension: % of subjects: (2.8%)
- Hypertension: number of subjects: 7
- Hypertransaminasemia: % of subjects: (0.4%)
- Hypertransaminasemia: number of subjects: 1
- Hypertriglyceridemia: % of subjects: (0.4%)
- Hypertriglyceridemia: number of subjects: 1
- Hypoacusis: % of subjects: (0.4%)
- Hypoacusis: number of subjects: 1
- Immune system disorders: % of subjects: (0.8%)
- Immune system disorders: number of subjects: 2
- Influenza like illness: % of subjects: (0.4%)
- Influenza like illness: number of subjects: 1
- Insomnia: % of subjects: (0.8%)
- Insomnia: number of subjects: 2
- Intertrigo: % of subjects: (0.4%)
- Intertrigo: number of subjects: 1
- Ketonuria: % of subjects: (0.4%)
- Ketonuria: number of subjects: 1
- Leukocyturia: % of subjects: (0.4%)
- Leukocyturia: number of subjects: 1
- Leukopenia: % of subjects: (0.4%)
- Leukopenia: number of subjects: 1
- Libido decreased: % of subjects: (0.4%)
- Libido decreased: number of subjects: 1
- Liver disorder: number of subjects: 0
- Lymphopenia: % of subjects: (0.8%)
- Lymphopenia: number of subjects: 2
- Menopause: % of subjects: (0.4%)
- Menopause: number of subjects: 1
- Metabolism and nutrition disorders: % of subjects: (4.5%)
- Metabolism and nutrition disorders: number of subjects: 11
- Neoplasms benign, malignant and unspecified (incl cysts and polyps): % of subjects: (2.4%)
- Neoplasms benign, malignant and unspecified (incl cysts and polyps): number of subjects: 6
- Nephrolithiasis: % of subjects: (0.4%)
- Nephrolithiasis: number of subjects: 1
- Neutropenia: % of subjects: (0.8%)
- Neutropenia: number of subjects: 2
- Night sweats: % of subjects: (0.4%)
- Night sweats: number of subjects: 1
- Non-cardiac chest pain: % of subjects: (0.4%)
- Non-cardiac chest pain: number of subjects: 1
- Ocular cyst: % of subjects: (0.4%)
- Ocular cyst: number of subjects: 1
- Oedema peripheral: % of subjects: (1.6%)
- Oedema peripheral: number of subjects: 4
- Oropharyngeal pain: % of subjects: (0.8%)
- Oropharyngeal pain: number of subjects: 2
- Procedural pain: % of subjects: (0.4%)
- Procedural pain: number of subjects: 1
- Productive cough: % of subjects: (0.4%)
- Productive cough: number of subjects: 1
- Proteinuria: % of subjects: (0.4%)
- Proteinuria: number of subjects: 1
- Pruritus: % of subjects: (0.8%)
- Pruritus: number of subjects: 2
- Psoriasis: % of subjects: (1.2%)
- Psoriasis: number of subjects: 3
- Psychiatric disorders: % of subjects: (2.0%)
- Psychiatric disorders: number of subjects: 5
- Pyrexia: % of subjects: (0.8%)
- Pyrexia: number of subjects: 2
- Rash pruritic: number of subjects: 0
- Renal and urinary disorders: % of subjects: (3.2%)
- Renal and urinary disorders: number of subjects: 8
- Renal mass: % of subjects: (0.4%)
- Renal mass: number of subjects: 1
- Respiratory, thoracic and mediastinal disorders: % of subjects: (5.3%)
- Respiratory, thoracic and mediastinal disorders: number of subjects: 13
- Retinal vein occlusion: % of subjects: (0.4%)
- Retinal vein occlusion: number of subjects: 1
- Rhinorrhoea: % of subjects: (0.4%)
- Rhinorrhoea: number of subjects: 1
- Seasonal allergy: % of subjects: (0.8%)

From US20260232767A1, “INTERLEUKIN-23 RECEPTOR ANTAGONIST PEPTIDES FOR USE IN THE TREATMENT OF PSORIASIS” (Janssen Pharmaceutica NV, priority 2023, published 2026)
